Laboratory results: patent US9023864B2, “Indole derivatives as CRTH2 receptor antagonists” (Merck Sharp & Dohme Corp., priority 2009, dated 2015)

Target: T1, hCRTH2 (Homo sapiens, UniProt Q9Y5Y4)
T1 construct: expressed in transfected cells; host or cells: HEK cell line expressing hCRTH2 (HEK-hCRTH2); membranes
T1 sequence (Q9Y5Y4 1-395): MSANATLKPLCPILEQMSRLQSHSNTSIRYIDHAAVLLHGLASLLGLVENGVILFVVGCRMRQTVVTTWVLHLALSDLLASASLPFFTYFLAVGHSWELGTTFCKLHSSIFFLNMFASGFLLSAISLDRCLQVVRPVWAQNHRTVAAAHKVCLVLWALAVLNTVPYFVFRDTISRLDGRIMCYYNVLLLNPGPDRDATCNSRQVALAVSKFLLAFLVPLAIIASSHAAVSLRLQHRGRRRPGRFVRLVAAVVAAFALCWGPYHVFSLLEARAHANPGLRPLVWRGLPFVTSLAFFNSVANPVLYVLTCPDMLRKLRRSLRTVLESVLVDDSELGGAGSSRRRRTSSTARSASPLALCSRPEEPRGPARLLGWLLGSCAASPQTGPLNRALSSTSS
Test: Radioligand binding assay ([3H]PGD2 competition, membranes from HEK-hCRTH2 cell line)
Conditions: 0.7 nM [3H]PGD2, membrane protein from HEK-hCRTH2 cell line, 60 min at room temperature; values given as ranges
Experimental: Radioligand Binding Assay.
Radioligand binding assays were performed at room temperature in 10 mM HEPES/KOH pH 7.4, 1 mM EDTA containing 10 mM MnCl2 and 0.7 nM [^3H]PGD2 (NEN, 171 Ci mmol^−1), in a final volume of 0.2 ml. Competing ligands were diluted in dimethylsulfoxide (Me2SO) that was kept constant at 1% (v/v) of the final incubation volume. The reaction was initiated by the addition of 8-20 μg of membrane protein prepared from a HEK-hCRTH2 cell line. Total and non-specific binding were determined in the absence and the presence of 10 μM PGD2, respectively. Under these conditions, specific binding (total minus non-specific) of the radioligand to the receptor reached equilibrium within 50 min and was stable up to 180 min. The reaction was routinely conducted for 60 min at room temperature and terminated by rapid filtration through prewetted Unifilters GF/C (Packard), using a Tomtec MachIII semi-automated harvester (for HEK-hCRTH2). The filters were then washed with 4 ml of the same buffer and residual radioligand bound to the filter was determined by liquid scintillation counting following equilibration in 25 μl Ultima Gold F™ (Unifilter) (Packard). The Ki (in nM) values for representative compounds of the present invention are as follows: ≦5: Examples 3.1, 5.1, 6.1, 7.1, 8.1/8A, 9.1, 26, 27.1, 28.1, 29.1, 30, 31.1, 31.3, 32.1, 32.4, 33.1, 34.1, 36.1, 38.1, 39, 40, 41; >5 and ≦10: Examples, 4, 5.3, 29.2; >10 and ≦50: Examples 1, 10, 14, 21, 22, 25, 31.4, 32.3, 35, 36.2, 37; >50 and ≦100: Examples 2, 5.4, 6.2, 27.2, 28.2; >100: Examples 3.2, 5.2, 7.2, 8.2, 9.2, 11, 12, 13, 15, 16, 17, 18, 19, 20, 23, 24, 31.2, 32.2, 33.2, 34.2, 38.2.

Ki	SMILES
0.01 to 0.05 µM	Cc1c(Cc2ccc(F)cc2)nnn1C1CCc2c(CC(=O)O)c3cccc(F)c3n2C1 (racemic) [Example 37, {4-Fluoro-7-[4-(4-fluorobenzyl)-5-methyl-1H-1,2,3-triazol-1-yl]-6,7,8,9-tetrahydropyrido[1,2-α]indol-10-yl}acetic acid]
≤ 0.005 µM	O=C(O)Cc1c2n(c3ccccc13)CC(n1nncc1Cc1ccccc1)CC2 (single isomer, unassigned) [Example 3.1, [7-(5-Benzyl-[1,2,3]triazol-1-yl)-6,7,8,9-tetrahydropyrido[1,2-α]indol-10-yl]-acetic acid]
> 0.1 µM	O=C(O)Cc1c2n(c3ccccc13)CC(n1nncc1Cc1ccccc1)CC2 (single isomer, unassigned) [Example 3.2, [7-(5-Benzyl-[1,2,3]triazol-1-yl)-6,7,8,9-tetrahydropyrido[1,2-α]indol-10-yl]-acetic acid]
≤ 0.005 µM	CC(O)(c1ccc(F)cc1)c1cnnn1C1CCc2c(CC(=O)O)c3ccccc3n2C1 (single isomer, unassigned) [Example 5.1, (7-{5-[1-(4-Fluoro-phenyl)-1-hydroxy-ethyl]-[1,2,3]triazol-1-yl}-6,7,8,9-tetrahydropyrido[1,2-α]indol-10-yl)-acetic acid]
> 0.1 µM	CC(O)(c1ccc(F)cc1)c1cnnn1C1CCc2c(CC(=O)O)c3ccccc3n2C1 (single isomer, unassigned) [Example 5.2, (7-{5-[1-(4-Fluoro-phenyl)-1-hydroxy-ethyl]-[1,2,3]triazol-1-yl}-6,7,8,9-tetrahydropyrido[1,2-α]indol-10-yl)-acetic acid]
0.005 to 0.01 µM	CC(O)(c1ccc(F)cc1)c1cnnn1C1CCc2c(CC(=O)O)c3ccccc3n2C1 (single isomer, unassigned) [Example 5.3, (7-{5-[1-(4-Fluoro-phenyl)-1-hydroxy-ethyl]-[1,2,3]triazol-1-yl}-6,7,8,9-tetrahydropyrido[1,2-α]indol-10-yl)-acetic acid]
0.05 to 0.1 µM	CC(O)(c1ccc(F)cc1)c1cnnn1C1CCc2c(CC(=O)O)c3ccccc3n2C1 (single isomer, unassigned) [Example 5.4, (7-{5-[1-(4-Fluoro-phenyl)-1-hydroxy-ethyl]-[1,2,3]triazol-1-yl}-6,7,8,9-tetrahydropyrido[1,2-α]indol-10-yl)-acetic acid]
≤ 0.005 µM	O=C(O)Cc1c2n(c3ccccc13)CC(n1nncc1C1(c3ccccc3)CCCC1)CC2 (single isomer, unassigned) [Example 6.1, {7-[5-(1-Phenyl-cyclopentyl)-[1,2,3]triazol-1-yl]-6,7,8,9-tetrahydropyrido[1,2-α]indol-10-yl}-acetic acid]
0.05 to 0.1 µM	O=C(O)Cc1c2n(c3ccccc13)CC(n1nncc1C1(c3ccccc3)CCCC1)CC2 (single isomer, unassigned) [Example 6.2, {7-[5-(1-Phenyl-cyclopentyl)-[1,2,3]triazol-1-yl]-6,7,8,9-tetrahydropyrido[1,2-α]indol-10-yl}-acetic acid]
≤ 0.005 µM	O=C(O)Cc1c2n(c3c(F)cccc13)CC(n1nncc1Cc1ccccc1)CC2 (single isomer, unassigned) [Example 7.1, [7-(5-Benzyl-[1,2,3]triazol-1-yl)-4-fluoro-6,7,8,9-tetrahydropyrido[1,2-α]indol-10-yl]-acetic acid]
> 0.1 µM	O=C(O)Cc1c2n(c3c(F)cccc13)CC(n1nncc1Cc1ccccc1)CC2 (single isomer, unassigned) [Example 7.2, [7-(5-Benzyl-[1,2,3]triazol-1-yl)-4-fluoro-6,7,8,9-tetrahydropyrido[1,2-α]indol-10-yl]-acetic acid]
> 0.1 µM	O=C(O)Cc1c2n(c3c(F)cccc13)CC(n1nncc1Cc1ccc(F)cc1)CC2 (single isomer, unassigned) [Example 8.2, {4-Fluoro-7-[5-(4-fluoro-benzyl)-[1,2,3]triazol-1-yl]-6,7,8,9-tetrahydropyrido[1,2-α]indol-10-yl}-acetic acid]
≤ 0.005 µM	O=C(O)Cn1c2c(c3ccccc31)CC(n1nncc1Cc1ccccc1)CC2 (single isomer, unassigned) [Example 9.1, [3-(5-Benzyl-[1,2,3]triazol-1-yl)-1,2,3,4-tetrahydro-carbazol-9-yl]-acetic acid]
> 0.1 µM	O=C(O)Cn1c2c(c3ccccc31)CC(n1nncc1Cc1ccccc1)CC2 (single isomer, unassigned) [Example 9.2, [3-(5-Benzyl-[1,2,3]triazol-1-yl)-1,2,3,4-tetrahydro-carbazol-9-yl]-acetic acid]
≤ 0.005 µM	O=C(O)Cc1c2n(c3ccccc13)CC(n1nncc1C(O)(c1ccc(F)cc1)c1ccc(F)cc1)CC2 (single isomer, unassigned) [Example 27.1]
0.05 to 0.1 µM	O=C(O)Cc1c2n(c3ccccc13)CC(n1nncc1C(O)(c1ccc(F)cc1)c1ccc(F)cc1)CC2 (single isomer, unassigned) [Example 27.2]
≤ 0.005 µM	O=C(O)Cc1c2n(c3ccccc13)CC(n1nncc1Cc1ccc(F)cc1)CC2 (single isomer, unassigned) [Example 28.1]
0.05 to 0.1 µM	O=C(O)Cc1c2n(c3ccccc13)CC(n1nncc1Cc1ccc(F)cc1)CC2 (single isomer, unassigned) [Example 28.2]
≤ 0.005 µM	CC(c1ccccc1)c1cnnn1C1CCc2c(CC(=O)O)c3ccccc3n2C1 (single isomer, unassigned) [Example 29.1]
0.005 to 0.01 µM	CC(c1ccccc1)c1cnnn1[C@@H]1CCc2c(CC(=O)O)c3ccccc3n2C1 (single isomer, unassigned) [Example 29.2]
≤ 0.005 µM	CC(O)(c1ccc(F)cc1)c1cnnn1C1CCc2c(CC(=O)O)c3cccc(F)c3n2C1 (single isomer, unassigned) [Example 31.1]
> 0.1 µM	CC(O)(c1ccc(F)cc1)c1cnnn1C1CCc2c(CC(=O)O)c3cccc(F)c3n2C1 (single isomer, unassigned) [Example 31.2]
≤ 0.005 µM	CC(O)(c1ccc(F)cc1)c1cnnn1C1CCc2c(CC(=O)O)c3cccc(F)c3n2C1 (single isomer, unassigned) [Example 31.3]
0.01 to 0.05 µM	CC(O)(c1ccc(F)cc1)c1cnnn1C1CCc2c(CC(=O)O)c3cccc(F)c3n2C1 (single isomer, unassigned) [Example 31.4]
≤ 0.005 µM	CC(c1ccccc1)c1cnnn1C1CCc2c(CC(=O)O)c3cccc(F)c3n2C1 (single isomer, unassigned) [Example 32.1, {4-Fluoro-7-[5-(1-phenyl-ethyl)-[1,2,3]triazol-1-yl]-6,7,8,9-tetrahydropyrido[1,2-α]indol-10-yl}-acetic acid]
> 0.1 µM	CC(c1ccccc1)c1cnnn1C1CCc2c(CC(=O)O)c3cccc(F)c3n2C1 (single isomer, unassigned) [Example 32.2, {4-Fluoro-7-[5-(1-phenyl-ethyl)-[1,2,3]triazol-1-yl]-6,7,8,9-tetrahydropyrido[1,2-α]indol-10-yl}-acetic acid]
0.01 to 0.05 µM	CC(c1ccccc1)c1cnnn1C1CCc2c(CC(=O)O)c3cccc(F)c3n2C1 (single isomer, unassigned) [Example 32.3, {4-Fluoro-7-[5-(1-phenyl-ethyl)-[1,2,3]triazol-1-yl]-6,7,8,9-tetrahydropyrido[1,2-α]indol-10-yl}-acetic acid]
≤ 0.005 µM	CC(c1ccccc1)c1cnnn1C1CCc2c(CC(=O)O)c3cccc(F)c3n2C1 (single isomer, unassigned) [Example 32.4, {4-Fluoro-7-[5-(1-phenyl-ethyl)-[1,2,3]triazol-1-yl]-6,7,8,9-tetrahydropyrido[1,2-α]indol-10-yl}-acetic acid]
≤ 0.005 µM	O=C(O)Cc1c2n(c3c(F)cccc13)CC(n1nncc1Cc1ccc(F)c(F)c1)CC2 (single isomer, unassigned) [Example 33.1, {7-[5-(3,4-difluorobenzyl)-1H-1,2,3-triazol-1-yl]-4-fluoro-6,7,8,9-tetrahydropyrido[1,2-a]-indol-10-yl}acetic acid]
